Where a SMILES comes first, the peptide text is derived from it. [ ]: non-standard residue; d: D form. Nle = CCCC[C@H](N)C(=O)O
Experiments:
[1] = tested on: lysosome and ubiquitin-proteasome pathways; test: Lysosome/proteasome inhibitor rescue of anti-sEcad mAb-induced apoptosis and HER1-4 expression; format: cell-based
Procedure: Cellular apoptosis was quantitatively determined using the Cell Death Apoptosis Detection ELISA Plus kit (Boehringer Mannheim), which is based on the detection of DNA-histone complexes in the form of mono- and oligo-nucleosomes, according to the manufacturer's instructions. Briefly, cells were treated in the presence or absence of various concentrations of DECMA-1 or rat IgG1 for 24 to 48 h. Cells were harvested by trypsinization, counted and lysates were subjected to the ELISA. In vitro and in vivo apoptosis was further analyzed by in situ detection of fragmented DNA, using the DeadEnd Fluorometric TUNEL System (Promega), the ApopTag Peroxidase In situ Apoptosis Detection Kit (Millipore) and the human Apoptosis Array Kit (ARY009, R & D), according to the manufacturer's instructions. The ApopTag kit was performed on deparaffinized 5 μm-thick sections treated with proteinase K (20 μg/ml) at RT. For cell counting, the cells were trypsinized and counted on a haemocytometer. For tumor BrdU analyses, tissues were stained using an anti-BrdU (ab2284, abcam) antibody, as previously described (27). The proliferation of cells was monitored by a cell proliferation ELISA 5-bromo-2′-deoxyuridine (BrdU) (colorimetric) kit (Roche, Stockholm, Sweden), according to the manufacturers protocol.
Human MCF-7 and BT474 parental cells were purchased from the American Type Culture Collection (ATCC), and cultured according to ATCC recommendations. BT474-Herceptin resistant cells were a kind gift of Dr. Kute (Wake Forest University, Winston-Salem, N.C.) and grown in 10% FBS RPMI-1640 medium (ATCC). Anti-sEcad ectodomain-specific antibodies include DECMA-1 (Sigma), HECD-1 (Calbiochem), SHE78-7 (Calbiochem) and H108 (Santa Cruz Biotechnology). The IAP antibody sampler kit was purchased from Cell Signaling. ALLN proteasome and chloroquine lysosome inhibitors were obtained from Sigma.

[2] = tested on: breast (MCF-7, SKBR3) cells; test: Transwell migration of breast cancer cells; format: cell-based, human
Procedure: (§1) For BrdU staining, cells were incubated with 10 μM BrdU for 2 h prior to fixation and processed for immunofluorescence microscopy as previously described (Brouxhon et al., Cancer Res. 67:7654-64, 2007). For BrdU analyses, cells were counted from 6 low-power fields (×100) per section. BrdU incorporation was also analyzed by a cell proliferation ELISA 5-bromo-2′-deoxyuridine (BrdU) (colorimetric) kit (Roche, Stockholm, Sweden), according to the manufacturer's instructions. Migration and invasion of cells were measured using 8.0 μm pore BD BioCoat Control Insert 24-well plates (no. 354578) and Matrigel Invasion Chamber 24-well Plates (no. 354480), respectively (BD Bioscience). Cells were collected, washed, and 2×10^5 cells were plated in 0.4% FBS medium in the top chamber, with 0-20 μg/mL of rhEcad/Fc in the bottom chamber. […] Migrated or invaded cells on the lower surface were fixed with methanol, stained with 0.5% crystal violet, examined by bright field microscopy and photographed. Migration or invasion was quantitated by counting migrated or invaded cells in at least ten random high-power fields per insert and expressed as averages. Results are presented as fold change of the number of migrated/invaded cells to the untreated controls in triplicate experiments.

HER1, HER2, IGF-1R = test: Western blot of receptor phosphorylation in skin and oropharyngeal SCC cell lines; format: cell-based; settings: PAM212 cells
Procedure: (§3) After brief sonication, lysates were cleared by centrifugation at 4° C. […] After transfer to nitrocellulose membrane and blocking with 1% BSA, samples were probed with primary antibodies. Western blot images were captured using HP Scanjet G4050 and analyzed relative to G3PDH or actin using NIH Scion Image.
(§4) Antibodies against total HER1 and HER 4 and phosphorylated HER1-4, pPI3K, pAkt, pmTOR, p4E-BP1, pRaptor and pp70S6K obtained from Cell Signaling Technologies. Monoclonal antibodies to HER3 and HER4 were obtained from Thermo Scientific. Polyclonal antibody to the extracellular domain of E-cadherin and monoclonal antibody to α-actin were obtained from Santa Cruz Biotechnology. Monoclonal antibody to the extracellular domain of E-cadherin (DECMA-1) and to His Tag were obtained from Sigma and Abcam, respectively. Monoclonal antibody to G3PDH, ubiquitin and rat IgG1 were obtained from Ambion, Zymed and Southern Biotechnology, respectively.

[3] = tested on: MCF-7, SKBR3 and MDA-MB-231 breast cancer cell lines; test: BrdU proliferation in breast cancer cell lines; format: cell-based, human; settings: for basal and sEcad-induced BrdU incorporation: breast cancer cells, Canertinib 1 μM, Lapatinib 5 μM, Gefitinib 5 μM
Procedure: (§2) For BrdU staining, cells were incubated with 10 μM BrdU for 2 h prior to fixation and processed for immunofluorescence microscopy as previously described (Brouxhon et al., Cancer Res. 67:7654-64, 2007). For BrdU analyses, cells were counted from 6 low-power fields (×100) per section. BrdU incorporation was also analyzed by a cell proliferation ELISA 5-bromo-2′-deoxyuridine (BrdU) (colorimetric) kit (Roche, Stockholm, Sweden), according to the manufacturer's instructions. Migration and invasion of cells were measured using 8.0 μm pore BD BioCoat Control Insert 24-well plates (no. 354578) and Matrigel Invasion Chamber 24-well Plates (no. 354480), respectively (BD Bioscience). Cells were collected, washed, and 2×10^5 cells were plated in 0.4% FBS medium in the top chamber, with 0-20 μg/mL of rhEcad/Fc in the bottom chamber. After 22 h, cells on the top were removed using a cotton swab. Migrated or invaded cells on the lower surface were fixed with methanol, stained with 0.5% crystal violet, examined by bright field microscopy and photographed. Migration or invasion was quantitated by counting migrated or invaded cells in at least ten random high-power fields per insert and expressed as averages. Results are presented as fold change of the number of migrated/invaded cells to the untreated controls in triplicate experiments.

[4] = tested on: oropharyngeal FADU and skin SCC (PAM212, CC4A, SCC13 and SCC12b) cell lines; test: Proliferation in oropharyngeal and skin SCC cell lines; format: cell-based; settings: PAM212 skin SCC cells; HER inhibitors
Procedure: as §2

[5] = tested on: skin (PAM212, CC4A, SCC12b, SCC13) and oropharyngeal (FADU) cells; test: Transwell migration of SCC cells; format: cell-based; settings: PAM212 skin SCC cells; HER inhibitors
Procedure: as §2

[6] = tested on: skin (SCC12b, SCC13, PAM212 and CC4A) and the head & neck FADU cell line; test: Matrigel invasion of SCC cells; format: cell-based; settings: for sEcad-induced invasion: PAM212 skin SCC cells, HER inhibitors
[7] = tested on: MEK1/2, ERK1/2, PI3K, Akt, mTOR, p70S6K, 4EBP1; test: Western blot of downstream MAPK-PI3K/Akt/mTOR signaling in SCC cell lines; format: cell-based; settings: PAM212 cells
Procedure: as §3, §4

[8] = tested on: MDA-MB-231 and MCF-7 breast cancer cells; test: Matrigel invasion of breast cancer cells; format: cell-based, human
Procedure: as §1

HER1-4 = test: Western blot of HER phosphorylation in breast cancer cells; format: cell-based, human; settings: MCF-7 cells, equimolar concentrations, compared to sEcad alone
Description: The association of sEcad with these RTK was also confirmed by in vitro studies. Specifically, in cell culture systems, extracts from sEcad (rhEcad/Fc:His tagged) treated E-cadherin positive MCF-7 and E-cadherin negative SKBR3 and MDA-MB-231 breast cancer cells were immunoprecipitated with HER1-4-specific antibodies and analyzed by western blotting with a His-tagged-specific antibody. Here, we detected HER1-4-sEcad, HER1-2-sEcad and HER1-sEcad interactions in MCF, SKBR3 and MDA-MB-231 breast cancer cells, respectively. […] Because ligand binding to the HER family of receptors induces the formation of homo- and heterodimers, resulting in phosphorylation on specific tyrosine residues within the cytoplasmic domain (Yarden and Siliwkowski, Nature Reviews. 2:127-137, 2001), we next used western blot assays to examine whether sEcad promotes HER phosphorylation and downstream signaling.
Immunoprecipitation assays were carried out by harvesting tissues or cells with immunoprecipitation lysis buffer (20 mM Tris-HCl, pH 7.5; 137 mM NaCl; 100 mM NaF; 10% glycerol (vol/vol); 1% (vol/vol) Nonidet P-40; 1 mM PMSF and protease inhibitor cocktail (Sigma)). After brief sonication, lysates were cleared by centrifugation at 4° C. […] Western blot images were captured using HP Scanjet G4050 and analyzed relative to G3PDH or actin using NIH Scion Image. […]

[9] = MCF-7 cells, 24 h, equimolar concentrations

## CCCC[C@@H](C=O)NC(=O)[C@H](CC(C)C)NC(=O)[C@H](CC(C)C)NC(C)=O [ALLN] (Ac-Leu-Leu-[Nle]-aldehyde)
[1]
  HER1-4 expression in anti-sEcad mAb treated cells in presence of inhibitor: rescue of HER1-4 expression
  anti-sEcad mAb-induced apoptosis in presence of inhibitor: inhibited

## FC(F)(F)c1ccc(/C=C/c2nc(COc3ccc(CCCCn4ccnn4)cc3)co2)cc1 [Mubritinib]
[2]; breast cancer cells (MCF-7)
  basal and rhEcad/Fc-mediated migration: only blocked sECad-induced MCF-7 migration

## C=CC(=O)Nc1cc2c(Nc3ccc(F)c(Cl)c3)ncnc2cc1OCCCN1CCOCC1 [Canertinib]
HER1, HER2, IGF-1R
  sEcad-induced HER1 phosphorylation: completely abrogated
  sEcad-induced HER2 phosphorylation (pHER2): completely abrogated
HER1, HER2, IGF-1R; in the presence of sEcad, compared to corresponding controls
  phospho-IGF-1R levels: did not alter
[3]
  basal and sEcad-induced BrdU incorporation: significantly reduced both basal and sEcad-induced BrdU incorporation
[4]
  sEcad-induced proliferation: effectively inhibited sEcad-induced proliferation, migration and invasion
[5]
  sEcad-induced migration: effectively inhibited sEcad-induced proliferation, migration and invasion
[6]
  sEcad-induced invasion: effectively inhibited sEcad-induced proliferation, migration and invasion

## COc1cc2ncnc(Nc3ccc(F)c(Cl)c3)c2cc1OCCCN1CCOCC1 [Gefitinib]
[7]
  sEcad-induced phosphorylation of 4EBP1: only minimal effects
  sEcad-induced phosphorylation of ERK1/2, Akt and p70S6K: decreased
  sEcad-induced phosphorylation of PI3K: decreased
[3]
  basal and sEcad-induced BrdU incorporation: significantly reduced both basal and sEcad-induced BrdU incorporation
[4]
  sEcad-induced proliferation: effectively inhibited sEcad-induced proliferation, migration and invasion
[5]
  sEcad-induced migration: effectively inhibited sEcad-induced proliferation, migration and invasion
[8]; MDA-MB-231 cell line, compared to untreated controls
  basal and sEcad-induced invasion: significantly reduced
[6]
  sEcad-induced invasion: effectively inhibited sEcad-induced proliferation, migration and invasion

## rhEGF: Recombinant human EGF (Enzo Life Sciences) (NSDSECPLSHDGYCLHDGVCMYIEALDKYACNCVVGYIGERCQYRDLKWWELR)
HER1-4
  HER1 and ERK1/2 phosphorylation: more potent effects on HER1 and ERK1/2 phosphorylation
[3]; [9]
  proliferation: significantly increased proliferation, migration and invasion
[2]; [9]
  migration: significantly increased proliferation, migration and invasion
[8]; [9]
  invasion: significantly increased proliferation, migration and invasion

## CCN(CC)CCCC(C)Nc1ccnc2cc(Cl)ccc12 (stereo not shown) [Chloroquine]
[1]
  HER1-4 expression in anti-sEcad mAb treated cells in presence of inhibitor: rescued HER1-4 membrane expression
  anti-sEcad mAb-induced apoptosis in presence of inhibitor: prevented anti-sEcad mAb-induced apoptosis at low doses

## CNC(=O)[C@H](Cc1c[nH]c2ccccc12)NC(=O)[C@@H](CC(=O)NO)CC(C)C [GM6001, Ilomastat]
[6]; PAM212 cells treated with 20 μg/mL rmEcad/Fc
  sEcad-stimulated invasion: completely blocked

Reference: patent US20190008957A1, “COMBINATION THERAPIES INCLUDING INHIBITORS OF THE EXTRACELLULAR DOMAIN OF E-CADHERIN” (The Research Foundation for The State of New York, priority 2012, published 2019)
